Test results as given in PMC10846744, “Cathelicidin peptide analogues inhibit EV71 infection through blocking viral entry and uncoating” (PLOS Pathogens, 2024).
Where no end group is shown, it is not given here.

Key:
EV71 virus [1] = experiment: Virus internalization assay (q-RT-PCR, immunoblotting); type: cell-based, enterovirus 71 (EV71); details: 1.5 μM peptide (q-RT-PCR, MOI = 1) or 3 μM (immunoblotting, MOI = 10); RD cells 4°C 1 hr then 37°C 1 hr
Method: Fig 3 LL-18 and FF-18 inhibit viral attachment and internalization. (A) EV71 virus (MOI = 1) was pre-incubated with 1.5 μM LL-18, FF-18 or 12 μM 12s before they were used to incubate with RD cells at 4°C for 1 hr. Viral RNA was then determined with q-RT-PCR. Values are normalized to vehicle treated cells. ***, P<0.001. (B) EV71 virus (MOI = 1) was pre-incubated with 1.5 μM LL-18, FF-18 or 12 μM 12s before they were used to incubate with RD cells at 4°C for 1 hr followed by 37°C incubation for 1 hr. Viral RNA was then determined with q-RT-PCR. Values are normalized to vehicle treated cells. ***, P<0.001. (C) Diagram of EV71 subgenomic replicon. […] (D) RD cells transfected with EV71 SGR RNA were treated with 1.5 μM LL-18 or FF-18 for 3 hrs (left panel) or 6 hrs (right panel) before luciferase activity was measured. ns, not significant.
Viral binding and internalization assays were performed as previously described. […] Cells were then washed extensively with ice-cold PBS, and the viruses retained were analyzed with real-time PCR. […]
Supplementary file ppat.1011967.s002.tif: S2 Fig LL-18 and FF-18 inhibit viral attachment and internalization. […] Cells were then washed extensively and kept cultured for 24 hrs before viral VP1 expression was determined with immunoblotting. […] Cells were then washed extensively and kept cultured for 24 hrs before viral VP1 expression was determined with immunoblotting. […]

EV71 virus [2] = experiment: EV71 infection inhibition on RD cells (VP1 immunoblot, viral titer, cell viability/CPE); type: cell-based, enterovirus 71 (EV71); details: for inhibition of EV71 viral VP1 protein expression: EV71 MOI = 1 pre-incubated with peptide 1 hr at room temperature, RD cells, immunoblotting, 24 h.p.i
Method: (§1) Synthetic peptides were purchased from Bioyears Co. Ltd. (Wuhan, China) with purity of more than 95% and dissolved in PBS. To test their inhibitory effects, the EV71 virus (MOI = 1) was incubated with the indicated amount of peptide at room temperature for 1 hr before the mixture was added to RD cells and maintained throughout the experiment. Cell viability, viral titer, or viral protein expression was determined 24 h.p.i. For the time-of-addition experiment, viruses were either pre-incubated with peptides (for the -2 and -1 time points), the mixture was added to the cells simultaneously (for 0 time point), or peptides were added after virus infection (for 1, 2, 4 and 7 h time points) and the virus/peptide was maintained in the culture before cell viability, viral titer, or viral protein expression was determined 24 h.p.i. The TCID50 of the virus was calculated according to the Reed-Muench method.
Cells were treated as described and harvested with LDS sample buffer (Thermo Fisher Scientific). After denaturation, samples were separated on 10% SDS-PAGE gel and then transferred to a polyvinylidene fluoride (PVDF) membrane. The proteins were blocked using 5% skimmed milk and probed with the corresponding antibodies. The following antibodies were used in this study: EV71 VP1 polyclonal antibody (GeneTex, Taiwan, China), β-Actin antibody (Zen BioScience, Chengdu, China), pan-Enterovirus Monoclonal antibody (Thermo Fisher Scientific). The chemiluminescence signals were visualized using ECL Advance reagents (Mishubio, China), and the images were acquired using the FUSION Solo S Imaging System (VILBER, France).
(§2) Cell viability assays were carried out using the Cell Titer-Glo Luminescent Cell Viability Assay Kit (Promega, Madison, WI) following the manufacturer’s instructions. Luminescence signals were measured using a BioTek Neo2 microplate reader.
For crystal violet staining, cells treated as indicated were first washed once with PBS, followed by fixation with 4% PFA. Cells were then stained with 0.5% crystal violet for 2 hrs before they were extensively washed with water.

RD cells = experiment: Cytotoxicity of peptides on RD cells (Cell Titer-Glo); type: cell-based, human; details: cell viability plotted against peptide concentration, Cell Titer-Glo (S1A-S1D Fig)
Method: To test whether Cathelicidin peptide (LL-37) and its analogues could inhibit enterovirus infection, we conducted viral infection inhibition test on RD cells, which are one of the most commonly used cells for enterovirus propagation. We first assessed the cytotoxicity of LL-37, LL-18, FF-18, and a short form of LL-37 (DL-37) (Fig 1A), and all the peptides tested have a CC50 over 50 μM (S1A–S1D Fig). We then chose lower concentrations to test their antiviral activity. […] In addition, EV71 infection could cause cytopathic effect (CPE) on RD cells, and peptide could rescue EV71-induced cell death as assayed by crystal violet staining (Fig 1E) or cellular ATP content measurement (Fig 1F).
as §2
(§3) (A-D) Cell viability of RD cells treated with the indicated amount of DL-37 (A), LL-37 (B), LL-18 (C), or FF-18 (D) was plotted against peptide concentration, and the cytotoxicity was determined. (E) EV71 virus pre-incubated with indicated amounts of DL-37, and the cell viability was determined 24 h.p.i. ***, P<0.001. (F-G) CVB5 (F) or Echo7 (G) virus pre-incubated with 0.3, 0.9, or 1.5 μM of peptides were used to infect RD cells. Cell viability was determined 24 h.p.i. ***, P<0.001. (H-I) CVB5 (H) or Echo7 (I) virus pre-incubated with 3, 6, or 12 μM of peptides were used to infect RD cells. Cell viability was determined 24 h.p.i. ***, P<0.001. (TIF) Click here for additional data file.

Echovirus 7 (Echo7) = experiment: Echo7 infection inhibition on RD cells (cell viability); type: cell-based; details: for inhibition of Echo7 infection: 0.3, 0.9, or 1.5 μM peptide pre-incubated with virus, RD cell viability 24 h.p.i (S1G Fig); for inhibition of Echo7 infection, higher concentrations: 3, 6, or 12 μM peptide pre-incubated with virus, RD cell viability 24 h.p.i (S1I Fig)
Method: as §1, §2, §3

For FRKSKEKIGKLFKRIVQRILDFLRNLV [LL-18], the “inhibition of EV71 internalization” value (EV71 virus [1]) was “strong inhibition”, the “inhibition of EV71 infection (overall conclusion)” value (EV71 virus [2]) was “could effectively inhibit EV71 infection” and the “reduction of EV71 viral titer in supernatant” value (EV71 virus [2]) was “reduce the viral titers dose-dependently”. The “inhibition of EV71 viral VP1 protein expression” value (EV71 virus [2]) was “inhibit EV71 viral protein expression in a dose-dependent manner”, the CC50 (RD cells) was “over 50 μM” and the “inhibition of Echo7 infection” value (Echovirus 7 (Echo7)) was “neither LL-18 nor FF-18 could inhibit CVB5 or Echo 7 infection”. For the same sequence, the “inhibition of Echo7 infection, higher concentrations” value (Echovirus 7 (Echo7)) was “could still not inhibit CVB5 or Echo 7 infection”.
With FRKSKEKIGKFFKRIVQRIFDFLRNLV [FF-18] the “inhibition of EV71 internalization” value (EV71 virus [1]) was “strong inhibition”, the “inhibition of EV71 infection (overall conclusion)” value (EV71 virus [2]) was “could effectively inhibit EV71 infection” and the “reduction of EV71 viral titer in supernatant” value (EV71 virus [2]) was “reduce the viral titers dose-dependently”. For the same sequence, the “inhibition of EV71 viral VP1 protein expression” value (EV71 virus [2]) was “inhibit EV71 viral protein expression in a dose-dependent manner”, the CC50 (RD cells) was “over 50 μM” and the “inhibition of Echo7 infection” value (Echovirus 7 (Echo7)) was “neither LL-18 nor FF-18 could inhibit CVB5 or Echo 7 infection”. For the same sequence, the “inhibition of Echo7 infection, higher concentrations” value (Echovirus 7 (Echo7)) was “could still not inhibit CVB5 or Echo 7 infection”.
